Assay [1] has as its system Ishikawa cells. The assay can be described thus: Induction of AlkP expression in Ishikawa cells. The class given is cell-based, human. The note with it: for Induction of Alkaline Phosphatase Expression (Ishikawa cells) AUC (%): % of AUC of luciferase response of archetypal 3, 4, 5 or 8 up to 0.3, 10, 1.0 and 3.0 μM; for EC (25% of 0.1 nM E2 effect) / activation at 1 µM / EC50: Homo sapiens, Ishikawa; for EC (25% of 0.1 nM E2 effect) / activation at 1 µM: 72 h; for EC (25% of 0.1 nM E2 effect): concentration required to achieve 25% of the effect of 0.1 nM E2, read-out: Induction of Alkaline Phosphatase Expression (Ishikawa cells) EC25E2; for activation at 1 µM: read-out: Induction of AlkP expression (Ishikawa cells) Agonism at 1μΜ (% of 0.1nM E2); for EC50: concentration required to achieve 50% of the effect of 0.1 nM E2, read-out: Induction of Alkaline Phosphatase Expression (Ishikawa cells) EC50E2; for AlkP-inducing agonist effect compared to the effect of 0.1 nM estradiol: isoflavonoids 1 μM, statistically significant effects. In outline: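 Ishikawa cells at 12,000 per well were grown in phenol-red-free MEM with 1 μg/mL insulin and 5% DCC-FBS, as an estrogenic read-out. AlkP activity versus isoflavonoid concentration was curve-fitted and AUC derived. AUC was expressed as % of the luciferase-response AUC of the matching archetypal isoflavone.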

The subject of assay [2] is TNFα mRNA. The experiment in a line: LPS-induced TNFα mRNA expression in RAW 264.7 cells (RT-qPCR). Type of assay: cell-based, mouse. Particulars: for reduction of LPS induction of TNFα mRNA expression: 3 μM, LPS 100 ng/ml 1 h; for suppression of LPS-stimulated TNFα mRNA expression: pre-incubated with 3 μM isoflavonoid prior to the stimulation. As to the method:
To assess TNFα mRNA expression, RAW 264.7 cells were plated in 6-well plates in alpha-MEM medium supplemented with 10% DCC-FBS, at a density of 300,000 cells per well, maintained in culture for 72 h and then exposed to vehicle (0.3% DMSO) or 3 μΜ test compound for 20 min or 24 h prior to stimulation with 100 ng/ml lipopolysaccharide (Sigma L4391) for 1 h. Extraction of total RNA, reverse transcription (RT) and quantitative PCR (qPCR) analysis of mRNA expression levels were performed as previously described. Relative gene expression levels were calculated by the comparative Ct method using the formula 2^(-ΔCt). Tumor necrosis factor alpha (TNFα) mRNA levels were normalized to the respective levels of […] (GAPDH). Test compound effects on the relative number of viable cells were assessed using crystal violet and a Safire II microplate reader (Tecan) as previously described. […] The following primers were used: […]
On the technique in general: Real-time PCR tracks product formation cycle by cycle.

The target in assay [3] is T1, ERα (Homo sapiens, UniProt P03372).
T1 sequence (P03372 1-595): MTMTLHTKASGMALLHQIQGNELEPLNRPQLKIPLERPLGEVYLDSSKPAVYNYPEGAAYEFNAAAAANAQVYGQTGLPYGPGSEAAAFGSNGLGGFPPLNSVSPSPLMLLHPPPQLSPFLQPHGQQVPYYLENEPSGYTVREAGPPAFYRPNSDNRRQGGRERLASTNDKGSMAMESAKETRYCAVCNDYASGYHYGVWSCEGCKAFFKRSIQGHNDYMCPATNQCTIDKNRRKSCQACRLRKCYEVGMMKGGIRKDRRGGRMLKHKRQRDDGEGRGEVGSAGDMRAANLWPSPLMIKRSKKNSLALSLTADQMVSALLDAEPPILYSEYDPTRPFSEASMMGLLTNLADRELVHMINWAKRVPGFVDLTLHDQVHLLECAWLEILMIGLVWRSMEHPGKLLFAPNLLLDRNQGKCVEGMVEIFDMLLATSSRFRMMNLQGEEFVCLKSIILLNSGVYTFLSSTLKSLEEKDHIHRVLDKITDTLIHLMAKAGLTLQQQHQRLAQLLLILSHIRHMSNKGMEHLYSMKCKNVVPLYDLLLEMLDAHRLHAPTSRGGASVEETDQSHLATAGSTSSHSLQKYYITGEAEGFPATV
The experiment in a line: ERE-dependent luciferase gene transcription in MCF-7:D5L cells. Type of assay: cell-based. Also on record: MCF-7:D5L cells, a clone of MCF-7 cells stably transfected with an Estrogen Response Element (ERE)-endowed reporter plasmid; endogenous in cells; host or cells: MCF-7:D5L (MCF-7 clone carrying pERE-Gl-Luciferase). Here is the method:
Assessment of ER/ERE-dependent luciferase gene transcription in MCF-7:D5L (express ERα) and HEK:ERβ cells (express ERβ) and determination of ER transcriptional agonism was carried as already described. Briefly, the cells were plated in 96-well plates at a density of 12,000 cells per well in phenol-red-free MEM (MCF-7:D5L cells) or phenol-red-free DMEM (HEK:ERβ cells) supplemented with 1 μg/mL insulin and 5% DCC-FBS. […] The AUC of the isoflavonoids of each group were then expressed as % of the AUC of the respective archetypal isoflavone. Since AUC data combine the efficacy as well as the potency of cell response into a single parameter, the %AUC data were considered here as a more reliable measure of relative ER/ERE-dependent luciferase expression of the test compounds.

Assay [4] has as its target T2, ERβ (Homo sapiens, UniProt Q92731). The assay can be described thus: ER binding competitor assay (fluorescent estrogen ES2), ERβ. The arrangement: purchased Invitrogen.
In assay [5] the target is T1, ERα. Also on record: purchased Invitrogen. Particulars: cited from earlier work.
The target of assay [6] is T2, ERβ. Also on record: purchased Invitrogen. Particulars: cited from earlier work.

T2 sequence (Q92731 whole entry): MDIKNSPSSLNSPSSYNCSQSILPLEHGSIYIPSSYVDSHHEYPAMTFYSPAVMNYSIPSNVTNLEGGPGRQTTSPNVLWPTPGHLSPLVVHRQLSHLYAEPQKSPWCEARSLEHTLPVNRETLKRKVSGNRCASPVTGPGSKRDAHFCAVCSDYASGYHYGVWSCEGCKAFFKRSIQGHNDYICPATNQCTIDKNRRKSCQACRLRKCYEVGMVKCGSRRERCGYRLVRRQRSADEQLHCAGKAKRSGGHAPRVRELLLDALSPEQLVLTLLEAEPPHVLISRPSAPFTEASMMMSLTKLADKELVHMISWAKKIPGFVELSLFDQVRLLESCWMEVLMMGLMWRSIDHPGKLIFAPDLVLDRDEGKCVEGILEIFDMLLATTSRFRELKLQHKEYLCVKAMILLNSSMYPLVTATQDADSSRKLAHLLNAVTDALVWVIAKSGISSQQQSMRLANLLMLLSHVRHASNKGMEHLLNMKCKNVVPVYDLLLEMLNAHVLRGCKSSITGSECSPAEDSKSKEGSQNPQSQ

Turning to `O=c1c(-c2ccc(OC3O[C@H](CO)[C@@H](O)[C@H](O)[C@H]3O)cc2)coc2cc(OC3O[C@H](CO)[C@@H](O)[C@H](O)[C@H]3O)cc(O)c12` (stereo partly shown) [Compound 11, 7,4΄-di-O-glucopyranosylgenistein], in assay [1], the “Induction of Alkaline Phosphatase Expression (Ishikawa cells) AUC (%)” value is given as 66±5%, the EC (25% of 0.1 nM E2 effect) was found to be 0.09 ± 0.01 µM, the activation at 1 µM stood at 105 ± 9% and the EC50 came out at 160 ± 20 nM. The “AlkP-inducing agonist effect compared to the effect of 0.1 nM estradiol” value in assay [1] is “very similar to estradiol”. In addition, the “Ratio of AUC (AlkP / Lucif)” value in assay [1] (AUCAlkP / AUCluciferase) came out at 0.88±0.06. For the same molecule, in assay [2] (pre-treatment 20 min), the “reduction of LPS induction of TNFα mRNA expression” value (shortened to “reduction”) turned out to be 30%. For the same molecule, the “reduction” value in assay [2] (pre-treatment 24 h) is recorded as 29%. In addition, the “suppression of LPS-stimulated TNFα mRNA expression” value in assay [2] was ~ 30%. The “Induction of ERE-dependent Luciferase Transcription (MCF-7:D5L cells) AUC (%)” value in assay [3] (% of AUC of luciferase response of archetypal 3, 4, 5 or 8 up to 0.3, 10, 1.0 and 3.0 μM) was 75±6%. Moreover, the “Induction of luciferase gene transcription through ERα, MCF-7:D5L cells, Agonism at 1μΜ (% of 0.1nM E2)” value in assay [3] (compounds 1 μM, estradiol 0.1 nM, 18 h) is 114 ± 4 (Full) % of 0.1nM E2. Moreover, the “Induction of ERE-dependent Luciferase Transcription (MCF-7:D5L cells) EC25E2” value in assay [3] (concentration required to achieve 25% of the effect of 0.1 nM E2) was found to be 40 ± 10 nM. Besides, in assay [3] (concentration required to achieve 50% of the effect of 0.1 nM E2, read-out: Induction of ERE-dependent Luciferase Transcription (MCF-7:D5L cells) EC50E2), the EC50 is 150 ± 30 nM. Further, the “ERα-dependent gene transcription agonist effect compared to the effect of 0.1 nM estradiol” value in assay [3] (isoflavonoids 1 μM, statistically significant effects) is given as “very similar to estradiol”.
For the molecule `O=c1c(-c2ccc(O)cc2)coc2cc(O[C@@H]3O[C@H](CO)[C@@H](O)[C@H](O)[C@H]3O)cc(O)c12` [Compound 12, 7-O-β-D-glucopyranosyl-genistein], in assay [1], the “Induction of Alkaline Phosphatase Expression (Ishikawa cells) AUC (%)” value amounted to 110±10%, the EC (25% of 0.1 nM E2 effect) was 0.05 ± 0.01 µM, the activation at 1 µM is 101 ± 5% and the EC50 was 70 ± 10 nM. Besides, in assay [1], the “AlkP-inducing agonist effect compared to the effect of 0.1 nM estradiol” value is given as “very similar to estradiol”. Besides, the “reduction” value in assay [2] (pre-treatment 24 h) is given as 20%. For the same molecule, the “suppression of LPS-stimulated TNFα mRNA expression” value in assay [2] is reported as “marginally effective”. In addition, the “RBAβ / RBAα” value in assay [4] (ERβ-binding selectivity) was 1.75. This molecule registered an RBAβ in assay [4] (RBA = (IC50 estradiol/IC50 compound) × 100, ES2 1 nM, estradiol set equal to 100) of 0.07 ± 0.02. Moreover, the “mean value (and the range) of previously reported RBAα” value in assay [5] is reported as less than 0.01. The “mean value (and the range) of previously reported RBAβ” value in assay [6] was less than 0.01.

Values taken from PMC6324813, “Biological evaluation of isoflavonoids from Genista halacsyi using estrogen-target cells: Activities of glucosides compared to aglycones” (PLoS ONE, 2019).
